This note sets out measurements from patent US8946205B2, “1,2,4-triazolo[4,3-a]pyridine derivatives and their use as positive allosteric modulators of mGluR2 receptors” (Janssen Pharmaceuticals, Inc., priority 2009, dated 2015).

Each structure is given as a SMILES string.

One data set has as its target T1, human mGluR2 receptor (Homo sapiens, UniProt Q14416).
T1 construct: expressed in transfected cells; host or cells: CHO cells (membranes)
Put plainly: [35S]GTPγS binding assay (PAM assay, membranes from CHO cells transfected with the human mGluR2 receptor). Conditions: in presence of glutamate at EC20; pEC50 = -log EC50 (mol/L); read-out: GTPγS-hR2 PAM pEC50 (converted). The class given is biochemical. The protocol:
The [^35S]GTPγS binding assay is a functional membrane-based assay used to study G-protein coupled receptor (GPCR) function whereby incorporation of a non-hydrolysable form of GTP, [^35S]GTPγS (guanosine 5′-triphosphate, labelled with […] ^35S), is measured. The G-protein α subunit catalyzes the exchange of guanosine 5′-diphosphate (GDP) by guanosine triphosphate (GTP) and on activation of the GPCR by an agonist, [^35S]GTPγS, becomes incorporated and cannot be cleaved to continue the exchange cycle (Harper (1998) Current Protocols in Pharmacology 2.6.1-10, John Wiley & Sons, Inc.). […] Here we describe the use of the [^35S]GTPγS binding assay using membranes from cells transfected with the human mGluR2 receptor and adapted from Schaffhauser et al. ((2003) Molecular Pharmacology 4:798-810) for the detection of the positive allosteric modulation (PAM) properties of the compounds of this invention.
CHO-cells were cultured to pre-confluence and stimulated with 5 mM butyrate for 24 h, prior to washing in PBS, and then collected by scraping in homogenisation buffer (50 mM Tris-HCl buffer, pH 7.4, 4° C.). Cell lysates were homogenized briefly using an ultra-turrax homogenizer. The homogenate was centrifuged at 16,000 RPM (Sorvall RC-5C plus rotor SS-34) for 10 minutes and the supernatant discarded. The pellet was resuspended in 5 mM Tris-HCl, pH 7.4 and centrifuged again (18,000 RPM, 20 min, 4° C.). The final pellet was resuspended in 50 mM Tris-HCl, pH 7.4 and stored at −80° C. in appropriate aliquots before use. Protein concentration was determined by the Bradford method (Bio-Rad, USA) with bovine serum albumin as standard.
Measurement of mGluR2 positive allosteric modulatory activity of test compounds was performed as follows. Test compounds and glutamate were diluted in assay buffer containing 10 mM HEPES acid, 10 mM HEPES salt, pH 7.4, 100 mM NaCl, 3 mM MgCl2 and 10 μM GDP. Human mGlu2 receptor-containing membranes were thawed on ice and diluted in assay buffer supplemented with 14 μg/ml saponin. Membranes were pre-incubated with compound alone or together with a predefined (˜EC20) concentration of glutamate (PAM assay) for 30 min at 30° C. After addition of [^35S]GTPγS (f.c. 0.1 nM) microplates were shaken briefly and further incubated to allow [^35S]GTPγS incorporation on activation (30 minutes, 30° C.). Final assay mixtures contained 7 μg of membrane protein in 10 mM HEPES acid, 10 mM HEPES salt, pH 7.4, 100 mM NaCl, 3 mM MgCl2,10 μM GDP and 10 μg/ml saponin. Total reaction volume was 200 μl. Reactions were terminated by rapid filtration through Unifilter-96 GF/B filter plates (Packard, Meriden, Conn.) using a 96-well Packard filtermate harvester. Filters were washed 6 times with ice-cold 10 mM NaH2PO4/10 mM Na2HPO4, pH 7.4. Filters were then air-dried, and 40 μl of liquid scintillation cocktail (Microscint-O) was added to each well. Membrane-bound radioactivity was counted in a Microplate Scintillation and Luminescence Counter from Packard.
The concentration-response curves of representative compounds of the present invention—obtained in the presence of EC20 of mGluR2 agonist glutamate to determine positive allosteric modulation (PAM)—were generated using the Lexis software interface (developed at J&J). Data were calculated as % of the control glutamate response, defined as the maximal response that is generated upon addition of glutamate alone. Sigmoid concentration-response curves plotting these percentages versus the log concentration of the test compound were analyzed using non-linear regression analysis. The concentration producing half-maximal effect is then calculated as EC50. The pEC50 values below are calculated as the −log EC50 (wherein EC50 is expressed in mol/L). […]

T1 sequence (Q14416 19-872): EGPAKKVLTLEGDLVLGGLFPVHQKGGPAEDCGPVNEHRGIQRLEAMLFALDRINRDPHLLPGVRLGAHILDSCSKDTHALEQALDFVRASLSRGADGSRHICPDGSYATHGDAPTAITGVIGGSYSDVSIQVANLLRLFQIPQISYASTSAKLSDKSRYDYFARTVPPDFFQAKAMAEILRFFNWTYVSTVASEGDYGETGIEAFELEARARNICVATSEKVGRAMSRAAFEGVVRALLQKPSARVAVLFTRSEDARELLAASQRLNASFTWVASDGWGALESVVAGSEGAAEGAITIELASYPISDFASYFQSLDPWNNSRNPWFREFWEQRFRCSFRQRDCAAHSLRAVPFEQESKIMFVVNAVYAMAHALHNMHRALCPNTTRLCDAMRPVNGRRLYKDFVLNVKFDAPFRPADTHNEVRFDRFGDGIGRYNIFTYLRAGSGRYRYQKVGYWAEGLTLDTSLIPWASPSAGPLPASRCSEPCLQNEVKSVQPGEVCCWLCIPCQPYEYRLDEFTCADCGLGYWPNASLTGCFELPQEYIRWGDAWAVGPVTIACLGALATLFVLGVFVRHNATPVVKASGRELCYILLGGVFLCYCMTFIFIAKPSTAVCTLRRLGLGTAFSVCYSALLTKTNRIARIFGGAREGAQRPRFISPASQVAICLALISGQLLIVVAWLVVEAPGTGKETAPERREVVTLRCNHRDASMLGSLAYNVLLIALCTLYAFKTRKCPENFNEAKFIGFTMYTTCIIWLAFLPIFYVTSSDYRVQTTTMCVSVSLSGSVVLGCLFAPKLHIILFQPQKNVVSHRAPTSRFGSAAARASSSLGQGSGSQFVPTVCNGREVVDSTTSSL

`CCOCc1nnc2c(Cl)c(-c3ccc4c(ccn4-c4ccccn4)c3)ccn12` [Compound 18] came in with a melting point of 235 °C. In addition, the EC50 on human mGluR2 receptor was 288 nM. Turning to `FC(F)(F)c1c(-c2ccc3c(ccn3-c3ncccn3)c2)ccn2c(CC3CC3)nnc12` [Compound 7], at human mGluR2 receptor, the EC50 was 11.5 nM.

Molecule `CCOCc1nnc2c(C)c(-c3ccc4c(ccn4-c4ccc(C)nc4)c3)ccn12` [Compound 49] came in with a melting point of 108.5 °C. Moreover, the EC50 on human mGluR2 receptor is 174 nM. As for `CCOCc1nnc2c(C(F)(F)F)c(-c3ccc4c(ccn4-c4cccnc4)c3)ccn12` [Compound 30], the melting point worked out at 182.4 °C. On human mGluR2 receptor, the EC50 was 33.9 nM.

As for `Clc1c(-c2ccc3c(ccn3C3CCOCC3)c2)ccn2c(CC3CC3)nnc12` [Compound 2], the melting point was more than 300 °C. The EC50 at human mGluR2 receptor is 64.6 nM. Regarding `CCOCc1nnc2c(Cl)c(-c3ccc4c(ccn4-c4ncccn4)c3)ccn12` [Compound 19], the EC50 at human mGluR2 receptor was 126 nM. On to `Clc1c(-c2cnc3c(ccn3-c3ccccn3)c2)ccn2c(CC3CC3)nnc12` [Compound 41], for which the melting point was more than 300 °C. Moreover, the EC50 on human mGluR2 receptor is 603 nM.

Turning to `Clc1c(-c2ccc3c(ccn3-c3ccncc3)c2)ccn2c(CC3CC3)nnc12` [Compound 44], the melting point is more than 300 °C. At human mGluR2 receptor, the EC50 is 66.1 nM. Consider `CCOCc1nnc2c(C(F)(F)F)c(-c3ccc4[nH]ccc4c3)ccn12` [Compound 33], for which the melting point stood at 200.1 °C. As for `Fc1cnccc1-n1ccc2cc(-c3ccn4c(CC5CC5)nnc4c3Cl)ccc21` [Compound 42, 8-Chloro-3-cyclopropylmethyl-7-[1-(3-fluoro-pyridin-4-yl)-1H-indol-5-yl]-[1,2,4]triazolo[4,3-a]pyridine], the melting point was more than 300 °C. At human mGluR2 receptor, the EC50 was 28.8 nM.

Consider `Cc1ccc(-n2ccc3cc(-c4ccn5c(CC6CC6)nnc5c4C(F)(F)F)cc(F)c32)cn1` [Compound 38], for which the melting point is more than 300 °C. At human mGluR2 receptor, the EC50 was 17 nM. The corresponding values for `Fc1cc(-c2ccn3c(CC4CC4)nnc3c2Cl)cc2cc[nH]c12` [Compound 28] are 235.5 °C and 117 nM. The corresponding values for `Clc1c(-c2cccc3[nH]ccc23)ccn2c(CC3CC3)nnc12` [Compound 13] are more than 300 °C and 813 nM. For `Cc1ccc(-n2ccc3cc(-c4ccn5c(CC6CC6)nnc5c4C(F)(F)F)ccc32)cn1` [Compound 36] the same measures were 204 °C and 9.33 nM. With `Clc1c(-c2cnc3c(ccn3CC3CCC3)c2)ccn2c(CC3CC3)nnc12` [Compound 39], the melting point was more than 300 °C. On human mGluR2 receptor, the EC50 is 126 nM.

Take `FC(F)(F)c1c(-c2ccc3c(ccn3-c3cccnc3)c2)ccn2c(CC3CC3)nnc12` [Compound 34]: the melting point was 144.3 °C. Molecule `O[C@H]1CC[C@H](n2ccc3cc(-c4ccn5c(CC6CC6)nnc5c4Cl)ccc32)CC1` [Compound 10] returned a melting point of more than 300 °C. The EC50 at human mGluR2 receptor is 52.5 nM. For `Clc1c(-c2ccc3c(ccn3-c3ncccn3)c2)ccn2c(CC3CC3)nnc12` [Compound 15] the same measures were more than 300 °C and 53.7 nM.

Turning to `CCOCc1nnc2c(Cl)c(-c3cc(Cl)c4[nH]ccc4c3)ccn12` [Compound 23], the EC50 on human mGluR2 receptor is 95.5 nM. With `CCOCc1nnc2c(Cl)c(-c3ccc4[nH]ccc4c3)ccn12` [Compound 29], the melting point was 176.4 °C. In addition, the EC50 on human mGluR2 receptor was 1260 nM. For `Cc1ccc(-n2ccc3cc(-c4ccn5c(CC6CC6)nnc5c4Cl)ccc32)cn1` [Compound 21, 8-Chloro-3-cyclopropylmethyl-7-[1-(2-methylpyridin-5-yl)-1H-indol-5-yl]-[1,2,4]triazolo[4,3-a]pyridine] the same measures were 137.2 °C and 23.4 nM. The corresponding values for `Cc1cc(-n2ccc3cc(-c4ccn5c(CC6CC6)nnc5c4Cl)ccc32)ccn1` [Compound 47] are more than 300 °C and 39.8 nM. `Fc1cc(-c2ccn3c(CC4CC4)nnc3c2Cl)cc2ccn(-c3cccnc3)c12` [Compound 48]: the melting point amounted to 195.6 °C. In addition, at human mGluR2 receptor, the EC50 is 46.8 nM.

`Cc1ccc(-n2ccc3cc(-c4ccn5c(CC6CC6)nnc5c4C4CC4)ccc32)cn1` [Compound 37] showed a melting point of more than 300 °C. Besides, the EC50 at human mGluR2 receptor was 39.8 nM. On to `CCOCc1nnc2c(Cl)c(-c3ccc4c(ccn4-c4ccc(C)nc4)c3)ccn12` [Compound 27], for which the melting point was determined as 188.9 °C. Besides, on human mGluR2 receptor, the EC50 was 56.2 nM. For `Clc1c(-c2ccc3nn(Cc4cccnc4)cc3c2)ccn2c(CC3CC3)nnc12` [Compound 11], the EC50 on human mGluR2 receptor was 871 nM. Molecule `FC(F)(F)c1c(-c2cc(Cl)c3[nH]ccc3c2)ccn2c(CC3CC3)nnc12` [Compound 14] came in with a melting point of more than 300 °C. In addition, at human mGluR2 receptor, the EC50 was 11 nM.

For `CC(C)(O)Cn1ccc2cc(-c3ccn4c(CC5CC5)nnc4c3Cl)ccc21` [Compound 9], the EC50 at human mGluR2 receptor was 158 nM.

In the case of `Clc1cc(-c2ccn3c(CC4CC4)nnc3c2Cl)cc2cc[nH]c12` [Compound 8], the melting point stood at 233.5 °C. For the same molecule, the EC50 at human mGluR2 receptor was 25.1 nM. The corresponding values for `FC(F)(F)c1c(-c2cnc3c(ccn3CC3CC3)c2)ccn2c(CC3CC3)nnc12` [Compound 25] are more than 300 °C and 182 nM. As for `Clc1c(-c2cnc3c(ccn3CC3CC3)c2)ccn2c(CC3CC3)nnc12` [Compound 22, 8-Chloro-3-cyclopropylmethyl-7-(1-cyclopropylmethyl-1H-pyrrolo[2,3-b]pyridin-5-yl)-[1,2,4]triazolo[4,3-a]pyridine], the melting point is 184.7 °C. Further, the EC50 on human mGluR2 receptor was 324 nM. `Clc1c(-c2ccc3c(ccn3-c3ccccn3)c2)ccn2c(CC3CC3)nnc12` [Compound 16] came in with a melting point of 197.1 °C. Moreover, at human mGluR2 receptor, the EC50 is 67.6 nM. The corresponding values for `CCOCc1nnc2c(Cl)c(-c3ccc4c(ccn4-c4cccnc4)c3)ccn12` [Compound 26] are 233.2 °C and 182 nM. For `Cc1c(-c2cnc3c(ccn3CC3CC3)c2)ccn2c(CC3CC3)nnc12` [Compound 40] the same measures were more than 300 °C and 407 nM. Turning to `FC(F)(F)Cc1nnc2c(Cl)c(-c3ccc4c(ccn4-c4ncccn4)c3)ccn12` [Compound 6], the EC50 at human mGluR2 receptor is 33.9 nM. In the case of `FC(F)(F)c1c(-c2cnc3[nH]ccc3c2)ccn2c(CC3CC3)nnc12` [Compound 24], the melting point was more than 300 °C. On human mGluR2 receptor, the EC50 was 1410 nM. The corresponding values for `Clc1c(-c2ccc3[nH]ccc3c2)ccn2c(CC3CC3)nnc12` [Compound 20] are more than 300 °C and 251 nM. For `FC(F)(F)Cc1nnc2c(Cl)c(-c3ccc4c(ccn4-c4ccccn4)c3)ccn12` [Compound 1] the same measures were more than 300 °C and 43.7 nM. Regarding `Cc1cc(-n2ccc3cc(-c4ccn5c(CC6CC6)nnc5c4C(F)(F)F)ccc32)ccn1` [Compound 46], the melting point is more than 300 °C. The EC50 at human mGluR2 receptor is 8.13 nM.

`FC(F)(F)c1c(-c2ccc3c(ccn3-c3ccncc3)c2)ccn2c(CC3CC3)nnc12` [Compound 43] had a melting point of more than 300 °C. In addition, the EC50 on human mGluR2 receptor was 16.6 nM.

Broadly, the melting point is the temperature, or range, at which the solid turns liquid.
